Results taken from patent US9446087B2, “Anti-resorptive and bone building dietary supplements and methods of use” (priority 2006, dated 2016).
Marks after values point to notes of the source that are not given here.

Columns and labels:
[1] = tested on: ovariectomized (OVX) rat model; test: In vivo ovariectomized (OVX) rat study - biomechanical measurements; details: OVX rats, 35 days, positive control 0.5 mg/day; vs placebo group
Experimental: (§1) Two different formulas were tested in an in vivo study involving female, […] rats, aged approximately 12-14 weeks, with approximate body weights between 200-250 grams. Formula 2 included varying dosages of pomegranate extract and grape seed extract and a fixed dosage of ipriflavone as reported in Table 18. Three dosages were tested for each formula. The study utilized 8 groups of rats, with 15 rats in each group and lasted approximately 35 days.
Table 18 below indicates the formula given to each of the 8 test groups. The dosages in Table 18 are based on the recommended human dosages and were converted to the appropriate corresponding rat dose using the FDA conversion formula: Human equivalent dose (HED, mg/kg)=rat dose in mg/kg×(rat weight in kg/human weight in kg)^0.33 HED=rat NOAEL×(W-rat/W-human)^(1-b), b=0.67. […]
The effectiveness of the formulas on antiresorption was assessed by outcome measurements that included DEXA scan (to determine bone mineral density), biomechanical measurement (to gather bone strength and functional information), micro-CT measurement (to assess virtual bone quality and functional information), and histomorphology measurement (to assess bone quality and functional information). […] These measurements were determined after 35 days of treatment. […]

[2] = tested on: calvaria (skull bones) from 4 day old pups; test: Calvarial Assay to Measure Inhibition of Bone Resorption (45Ca release); format: cell-based, CD-1 mice; details: positive control
Experimental: In order to label cells of newborn mice in utero, pregnant CD-1 female mice (at timed day 15) were injected with ^45Ca (25 uCi/mouse). […] The bones were incubated at 37° C. in a 5% CO2 humidified incubator for a period of 24 hours following which they were transferred to wells containing 1 ml media with factors added (IL-1, PTH and or compounds.) The treated bones were incubated under the above conditions for a further 72 hours. […] The results were expressed as % ^45Ca release and can be further reported as T/C ratios. For some factors and compounds, modification of this procedure can be used. As most of the osteoclasts are formed in the calvaria following the preincubation period, the factors that affect osteoclast formation may have a greater effect during the preincubation period. Thus, for a number of the compounds, they were included in the preincubation media.

[3] = tested on: ovariectomized (OVX) rat model; test: In vivo ovariectomized (OVX) rat study - micro-CT measurement; details: OVX rats, 35 days, positive control 0.5 mg/day; vs placebo group
Experimental: Two different formulas were tested in an in vivo study involving female, intact rats, aged approximately 12-14 weeks, with approximate body weights between 200-250 grams. Formula 2 included varying dosages of pomegranate extract and grape seed extract and a fixed dosage of ipriflavone as reported in Table 18. Three dosages were tested for each formula. The study utilized 8 groups of rats, with 15 rats in each group and lasted approximately 35 days.
To introduce rapid bone resorption caused by estrogen withdrawal, the ovariectomized (OVX) rat model was used in this study. […] It was important to evaluate the effect of bone resorption caused by the ovariectomy procedure so a Sham control (n=6), a group of female rats without undergoing the ovariectomy procedure, was also included in the study.
This study employed a randomized placebo controlled dose response design. A total of 120 ovariectomized rats (n=15 per group) aged ˜12-14 weeks, with body weights of approximately 200-250 grams were randomly assigned to groups for 35 days. Animals were fed at 15 grams/day, which included either a placebo diet or one of the formulas listed above, for a period of 35 days from the beginning of the experiment. […]

[4] = tested on: ovariectomized (OVX) rat model; test: In vivo ovariectomized (OVX) rat study - histomorphology measurement; details: OVX rats, 35 days, positive control 0.5 mg/day; vs placebo group
Experimental: as §1
Table 18 below indicates the formula given to each of the 8 test groups. […]
The effectiveness of the formulas on antiresorption was assessed by outcome measurements that included DEXA scan (to determine bone mineral density), biomechanical measurement (to gather bone strength and functional information), micro-CT measurement (to assess virtual bone quality and functional information), and histomorphology measurement (to assess bone quality and functional information). […] These measurements were determined after 35 days of treatment.
Histomorphology measurement was also used as a tool to determine the efficacy of formulas 1 and 2 where trabecular bone volume from each group was quantified. […]

NCCCC(O)(P(=O)(O)O)P(=O)(O)O [Alendronate]
Bone Stiffness [1]: 0.2%
Maximum Force Required to Fracture Bones [1]: −0.4%
Inhibition of Bone Resorption/Release of Calcium By Combinations of Extracts, % Release ([2]; IL-1 + 0.1 μM): 28.50 ± 1.19 % Release
Inhibition of Bone Resorption/Release of Calcium By Combinations of Extracts, % Release ([2]; IL-1 + 1 μM): 17.00 ± 1.15^a % Release
Inhibition of Bone Resorption/Release of Calcium By Combinations of Extracts, % Release ([2]; IL-1 + 10 μM): 14.07 ± 1.05^a % Release
Inhibition of Bone Resorption/Release of Calcium By Combinations of Extracts, % Release ([2]; IL-1 + 100 μM): 12.00 ± 0.17^a % Release
% Bone Volume/ Total Volume [3]: 632%^a
Trabecular Number (N/6 mm^3) [3]: 313%^a
Trabecular Separation [3]: −88%^a
% Bone Volume [4]: 214.1%^a
